Tumor sizes, tumor mass and inhibition ratio data for 1 compound are collected here from patent EP2926812A1, “USE OF ARTEMETHER IN PREPARATION OF DRUG FOR TREATING LEUKEMIA” (Kunming Pharmaceutical Corp., priority 2012, dated 2014).

Molecules are shown by their SMILES.

The test concerns K562 nude mice transplanted tumor. In words: Inhibition of growth of K562 nude mice transplanted tumor (pre-trial, experiment 1, experiment 2). The test is classed as in vivo, Balb/c nude mice. The following applies: cyclophosphamide 10 ml/kg intraperitoneal; for tumor sizes: n=6; for inhibition ratio: of tumor mass. An excerpt: 2.4 K562 cell: primary K562 cell is derived from bone marrow of a patient having leukemia, introduced by Blood Research Institute from abroad, stored and passaged in Pathologic Cell Bank; cultured in RPMI1640 medium (comprising 10% fetal bovine serum).
2.6 experimental animal: Balb/c nude mice, 4~5 weeks old, weight: 17~20 g, gender: half male and half female. Experimental Animal Institute of the Chinese Academy of Medical Sciences, certification number of experimental animals: SCXK (JING) 2005-0013.
3.1.1 Balb/c nude mice were subjected to 3.0Gy whole-body irradiation, after subcutaneous inoculation of primary K562 cells. About 4 weeks after inoculation, tumor masses in growing were removed and transplanted into […], and this process was repeated for 2~3 passages to establish high oncogenic K562 cell line.
3.1.2 Nude mice were subjected to 3.0Gy whole-body irradiation, after subcutaneous inoculation of the K562 cells. One week after inoculation, nude mice with visible tumors were divided into the following 4 groups each consisting of 6 animals. The following dosages were administered for 3 continuous weeks, with 7 doses per week, a total of 21 doses.
Model control group: intraperitoneal injection of 20% aqueous solution of excipient at 0.2 ml/animal.
High dosage group: intraperitoneal injection of artemether at 150 ml/kg.
Middle dosage group: intraperitoneal injection of artemether at 100 ml/kg.
Low dosage group: intraperitoneal injection of artemether at 50 ml/kg.
Nude mice were subjected to a 3.0Gy whole-body irradiation, after subcutaneous inoculation of the K562 cells. One week after inoculation, nude mice with visible tumors were divided into the following 5 groups each consisting of 6 animals. The following dosages were administered for 3 continuous weeks, with 5 doses per week, a total of 15 doses.
Positive control group: intraperitoneal injection of cyclophosphamide at 10 ml/kg.
High dosage group: intraperitoneal injection of artemether at 100 ml/kg.
Middle dosage group: intraperitoneal injection of artemether at 60 ml/kg.
Low dosage group: intraperitoneal injection of artemether at 40 ml/kg.
Nude mice were subjected to a 3.0Gy whole-body irradiation, after subcutaneous inoculation of the K562 cells. One week after inoculation, nude mice with visible tumors were divided into the following 5 groups each consisting of 6 nude mice.
Model control group: intraperitoneal injection of 20% solution of excipient at 0.2ml/animal. The dosage was administered for 3 weeks, with 7 doses per week, a total of 21 doses.
Positive control group: intraperitoneal injection of cyclophosphamide at 10 ml/kg. The dosage was administered for 3 weeks, with 7 doses per week, a total of 21 doses.
High dosage group: intraperitoneal injection of artemether at 100 ml/kg. The dosage was administered for 3 weeks, with 5 doses per week, a total of 15 doses.
Middle dosage group: intraperitoneal injection of artemether at 60 ml/kg. The dosage was administered for 3 weeks, with 7 doses per week, a total of 21 doses.
Low dosage group: intraperitoneal injection of artemether at 40 ml/kg. The dosage was administered for 3 weeks, with 7 doses per week, a total of 21 doses.

[1] abbreviates: experiment 1, 15 doses, 4 weeks after inoculation.
Setting [2] is: experiment 2, 21 doses, 4 weeks after inoculation.

Turning to `O=P1(N(CCCl)CCCl)NCCCO1` (stereo not drawn) [Cyclophosphamide, cyclophosphamide], the tumor sizes runs as follows: (experiment 1, 15 doses in 3 weeks, 1 week after inoculation) 48.1±10.9 mm3; (experiment 1, 15 doses in 3 weeks, 2 weeks after inoculation) 104.9±60.3 mm3; (experiment 1, 15 doses in 3 weeks, 3 weeks after inoculation) 373.7±319.9 mm3; (experiment 1, 15 doses in 3 weeks, 4 weeks after inoculation) 799.0±571.3 mm3; (experiment 2, 21 doses in 3 weeks, 1 week after inoculation) 30.7±10.9 mm3; (experiment 2, 21 doses in 3 weeks, 2 weeks after inoculation) 77.3±49.8 mm3. For the same compound, the tumor sizes by setting is: (experiment 2, 21 doses in 3 weeks, 3 weeks after inoculation) 203.1 ±94.7 mm3; (experiment 2, 21 doses in 3 weeks, 4 weeks after inoculation) 327.0±206.8 mm3. Also, the tumor mass by setting is: under setting [1], 651.7 ± 544.3 mg; under setting [2], 241.7 ± 176.8 mg. The inhibition ratio under setting [1] amounted to 39.2% and the inhibition ratio under setting [2] is 83.3%.
